Measurements: US5854282A, “3-benzoyl benzofuran derivatives as thyroid hormone antagonists” (Karo Bio AB, priority 1994, dated 1998)

How the values were obtained:
[1] = biological target: T1, human thyroid hormone receptor α1 (ThRα1) (Homo sapiens, UniProt P10827); test: Competition with 125I-T3 for binding to human thyroid hormone receptor α1 (ThRα1); settings: competition with 0.2 nM 125I-T3
T1 sequence (P10827 1-410 isoform P10827-2): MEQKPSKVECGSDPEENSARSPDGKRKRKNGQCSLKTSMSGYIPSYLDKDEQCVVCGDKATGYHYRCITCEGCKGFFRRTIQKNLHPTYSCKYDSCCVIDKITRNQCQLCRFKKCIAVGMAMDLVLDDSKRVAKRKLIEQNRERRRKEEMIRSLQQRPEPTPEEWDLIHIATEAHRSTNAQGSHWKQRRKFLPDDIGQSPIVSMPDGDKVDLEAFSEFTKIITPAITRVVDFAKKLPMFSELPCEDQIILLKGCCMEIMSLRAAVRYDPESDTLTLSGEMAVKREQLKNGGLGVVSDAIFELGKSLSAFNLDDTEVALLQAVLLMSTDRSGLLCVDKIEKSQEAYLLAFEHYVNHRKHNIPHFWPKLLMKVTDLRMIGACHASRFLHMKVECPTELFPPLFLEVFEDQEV
Protocol: (§1) A series of dilutions of each compound produced (Examples 1-15) were allowed to compete with a fixed concentration (0.2 nM) of ^125 I-T3 for binding to the human thyroid hormone receptor β1 (ThRβ1). In some examples, binding to the human thyroid hormone receptor α1 (ThRα1) was included.
(§2) After reaching equilibrium a separation step on Sephadex-G25 columns was introduced whereby the receptors were separated from compounds of low molecular weight (i.e the radioactive labeled hormones). The eluated receptor bound radioactivity was measured in a gamma-counter or with regular liquid scintillation counting.
(§3) An IC50 -value (The concentration of compound required to inhibit 50% of the binding of radioactive labeled hormone) was calculated from the curves.

[2] = biological target: T2, human thyroid hormone receptor β1 (ThRβ1) (Homo sapiens, UniProt P10828); test: Competition with 125I-T3 for binding to human thyroid hormone receptor β1 (ThRβ1); settings: competition with 0.2 nM 125I-T3
T2 sequence (P10828 1-461): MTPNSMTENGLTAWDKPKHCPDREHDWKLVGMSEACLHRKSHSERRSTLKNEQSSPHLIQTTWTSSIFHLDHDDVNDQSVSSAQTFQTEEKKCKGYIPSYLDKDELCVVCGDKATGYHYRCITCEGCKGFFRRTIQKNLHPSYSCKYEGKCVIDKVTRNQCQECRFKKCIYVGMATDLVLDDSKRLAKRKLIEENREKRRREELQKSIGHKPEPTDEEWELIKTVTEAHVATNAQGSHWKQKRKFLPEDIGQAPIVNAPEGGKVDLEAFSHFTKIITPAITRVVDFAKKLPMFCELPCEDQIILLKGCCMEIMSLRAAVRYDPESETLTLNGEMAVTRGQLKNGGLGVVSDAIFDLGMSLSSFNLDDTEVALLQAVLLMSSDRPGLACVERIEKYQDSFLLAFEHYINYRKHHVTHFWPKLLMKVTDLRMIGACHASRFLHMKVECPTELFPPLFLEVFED
Protocol: as §1, §2, §3

[3] = biological target: T3, human thyroid hormone receptor β (Homo sapiens, UniProt P10828); test: ALP reporter gene activity in TRAF β thyroid hormone reporter cells (agonism/antagonism ± T3); format: cell-based; settings: for antagonist activity in the ThRβ reporter cell line: in the presence of 1 nM T3
T3 sequence (P10828 1-461): T2 sequence (P10828 1-461)
Protocol: (§4) The biological activity of compounds in accordance with the invention was tested in thyroid hormone responsive reporter cell lines.
(§5) The thyroid hormone reporter cell lines (TRAF α and TRAF β) are genetically engineered, mammalian cell lines expressing thyroid hormone receptor (ThR) α and β, respectively. These thyroid hormone responding cell lines contain stable integrated artificial transcription units comprised of a thyroid hormone response element (TRE) and core promoter sequences fused to a downstream reporter gene encoding a secreted form of alkaline phosphatase (ALP).
(§6) In the absence of thyroid hormone the cells express only very low levels of the ALP reporter protein. […] The level of thyroid hormone dependent ALP protein expressed can be determined indirectly by an enzymatic chemiluminescence assay as previously described (Advances in Steroid Analysis '93, editor: Gorog S., Proceedings of the 5th Symposium on the analysis of Steroids, Published by Akademiai Kiado, Budapest, Hungary, p. 57-67). Briefly, an aliquot of the conditioned cell culture medium is mixed with AMPPD (disodium 3-4-methoxyspiro(1,2-dioxetane-3,2'-tricyclo(3,3.1)decan)-4-yl) phenyl phosphate containing assay buffer and incubated at 37° C. for 20 minutes. AMPPD was purchased from Boule Diagnostic, Sweden. The ALP in the medium sample dephosphorylates AMPPD generating an unstable intermediate which decomposes and emits light which is measured in a microplate format luminometer (Luminoskan, Labsystems, Finland). The rate of light emission is directly proportional to the level of ALP present in the sample.
The TRAF α and β cells, respectively, were seeded at a density of 2-2.5×10^4 cells/well in 96-well microtiterplates (suitable for growth of mammalian cells). […]
48 hours post addition of the hormonal/test compounds, cell number and cell morphology were examined under the light-microscope. […] In addition, the cell toxic effect of compounds was determined by the colorimetric MTS/PMS assay according to the suppliers recommendation (Promega Corp. through Scandinavian Diagnostic Services, Sweden) […]

[4] = biological target: T4, human thyroid hormone receptor α (Homo sapiens, UniProt P10827); test: ALP reporter gene activity in TRAF α thyroid hormone reporter cells (agonism/antagonism ± T3); format: cell-based; settings: for partial agonist/antagonist activity in the ThRα reporter cell line: ±1 nM T3; for antagonism to T3 in the ThRα reporter cell line / augmention of the agonism of T3 in the ThRα reporter cell line: in the presence of 1 nM T3
T4 sequence (P10827 1-370): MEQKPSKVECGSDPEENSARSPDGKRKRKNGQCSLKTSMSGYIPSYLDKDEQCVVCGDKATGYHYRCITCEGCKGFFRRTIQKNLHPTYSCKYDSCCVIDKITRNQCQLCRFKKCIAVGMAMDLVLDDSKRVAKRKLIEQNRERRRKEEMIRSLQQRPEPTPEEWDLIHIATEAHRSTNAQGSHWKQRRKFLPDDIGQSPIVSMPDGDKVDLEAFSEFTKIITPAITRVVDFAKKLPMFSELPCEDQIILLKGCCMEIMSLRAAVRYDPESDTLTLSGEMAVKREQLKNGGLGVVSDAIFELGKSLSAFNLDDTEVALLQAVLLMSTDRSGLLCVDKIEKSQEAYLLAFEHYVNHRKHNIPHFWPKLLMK
Protocol: as §4, §5, §6
The TRAF α and β cells, respectively, were seeded at a density of 2-2.5×10^4 cells/well in 96-well microtiterplates (suitable for growth of mammalian cells). The cells were seeded in Coon's medium (without phenolred) (SVA, Uppsala, Sweden)+10% FCS (Gibco-BRL) (hormone stripped) and cultivated overnight at 37° C. and 5% CO2 in a humidified incubator.
The cells were then cultivated at 37° C. and 5% CO2 in a humidified incubator for an additional 48 hours.
48 hours post addition of the hormonal/test compounds, cell number and cell morphology were examined under the light-microscope. A 10 μl aliquot of conditioned medium from each well was then transferred to white microtiterplates and assayed for the level of ALP reporter protein expressed (as described in Advances in Steroid Analysis '93 above). In addition, the cell toxic effect of compounds was determined by the colorimetric MTS/PMS assay according to the suppliers recommendation (Promega Corp. through Scandinavian Diagnostic Services, Sweden)
Hormone/test compounds added to the TRAF α and β reporter cells, respectively, per well in 96-well microtiter plates

| SMILES | IC50 [1] [µM] | IC50 [2] [µM] | also measured |
| --- | --- | --- | --- |
| CCCCc1oc2ccc(NC(=O)c3ccc(O)cc3)cc2c1C(=O)c1cc(Br)c(OCC(=O)O)c(Br)c1 [Example 13, 2-n-Butyl-3-(3,5-dibromo-4-carboxymethoxybenzoyl)-5-(4-hydroxybenzamido)benzofuran] | 2.57 | 2.4 | – |
| CCCCc1oc2ccc(NC(=O)Nc3ccc(OC)cc3)cc2c1C(=O)c1cc(I)c(OCC(=O)O)c(I)c1 [Example 11, 2-n-Butyl-3-(3,5-diiodo-4-carboxymethoxybenzoyl)-5-(4-methoxyphenylureido)benzofuran] | 3.24 | 3.72 | partial agonist/antagonist activity in the ThRβ reporter cell line ([3]; ±1 nM T3): partial agonist/antagonist activity; partial agonist/antagonist activity in the ThRα reporter cell line [4]: partial agonist/antagonist activity |
| CCCCc1oc2ccc(NS(=O)(=O)C(F)(F)F)cc2c1C(=O)c1cc(I)c(OCC(=O)O)c(I)c1 [Example 1, 2-n-Butyl-3(3,5-diiodo-4-carboxymethoxybenzoyl)-5-trifluoromethylsulphonamidobenzofuran] | – | 2.24 | antagonism to T3 in the ThRα reporter cell line [4]: no antagonism to T3; augmention of the agonism of T3 in the ThRα reporter cell line [4]: concentration dependent augmention of the agonism of T3 |
| CCCCc1oc2ccc(NC(=O)c3ccc(F)cc3)cc2c1C(=O)c1cc(I)c(OCC(=O)O)c(I)c1 [Example 9, 2-n-Butyl-3-(3,5-diiodo-4-carboxymethoxybenzoyl)-5-(4-fluorobenzamido)benzofuran] | 3.31 | 3.55 | – |
| CC(C)c1oc2ccc(NC(=O)c3ccc([N+](=O)[O-])cc3)cc2c1C(=O)c1cc(I)c(OCC(=O)O)c(I)c1 [Example 10, 2-Isopropyl-3-(3,5-diiodo-4-carboxymethoxybenzoyl)-5-(4-nitrobenzamido)benzofuran] | – | 4.27 | – |
| COc1ccc(C(=O)Nc2ccc3oc(C(C)C)c(C(=O)c4cc(I)c(OCC(=O)O)c(I)c4)c3c2)cc1 [Example 7, 2-Isopropyl-3-(3,5-diiodo-4-carboxymethoxybenzoyl)-5-(4-methoxybenzamido)benzofuran] | – | 3.63 | – |
| CCCCc1oc2ccc(NC(=O)c3ccc(OC)cc3)cc2c1C(=O)c1cc(I)c(OCC(=O)O)c(I)c1 [Example 3, 2-n-Butyl-3-(3,5-diiodo-4-carboxymethoxybenzoyl)-5-(4-methoxybenzamido)benzofuran] | – | 1.51 | – |
| CC(C)c1oc2ccc(NS(=O)(=O)C(F)(F)F)cc2c1Cc1cc(I)c(OCC(=O)O)c(I)c1 [Example 5, 2-Isopropyl-3-(3,5-diiodo-4-carboxymethoxybenzyl)-5-trifluoromethylsulphonamidobenzofuran] | – | 7.94 | antagonism to T3 in the ThRα reporter cell line [4]: no antagonism to T3; augmention of the agonism of T3 in the ThRα reporter cell line [4]: concentration dependent augmention of the agonism of T3 |
| CCCCc1oc2ccc(NC(=O)C(C)C)cc2c1C(=O)c1cc(I)c(OCC(=O)O)c(I)c1 [Example 2] | – | 6.61 | antagonism to T3 in the ThRα reporter cell line [4]: no antagonism to T3; augmention of the agonism of T3 in the ThRα reporter cell line [4]: concentration dependent augmention of the agonism of T3 |
| CC(C)c1oc2ccc(NC(=O)c3ccc(O)cc3)cc2c1C(=O)c1cc(Br)c(OCC(=O)O)c(Br)c1 [Example 15, 2-Isopropyl-3-(3,5-dibromo-4-carboxymethoxybenzoyl)-5-(4-hydroxybenzamido)benzofuran] | 3.09 | 3.31 | antagonist activity in the ThRβ reporter cell line [3]: no or only weak antagonist activity; partial agonist/antagonist activity in the ThRα reporter cell line [4]: partial agonist/antagonist activity |
| CCCCc1oc2ccc(NC(=O)c3ccc(O)cc3)cc2c1C(=O)c1cc(I)c(OCC(=O)O)c(I)c1 [Example 4, 2-n-Butyl-3-(3,5-diiodo-4-carboxymethoxybenzoyl)-5-(4-hydroxybenzamido)benzofuran] | 2.51 | 2.04 | – |
| CCCCc1oc2ccc(NC(=O)Nc3ccc(O)cc3)cc2c1C(=O)c1cc(I)c(OCC(=O)O)c(I)c1 [Example 12, 2-n-Butyl-3-(3,5-diiodo-4-carboxymethoxybenzoyl)-5-(4-hydroxyphenylureido)benzofuran] | 1.82 | 1.26 | – |
| COc1ccc(C(=O)Nc2ccc3oc(C(C)C)c(C(=O)c4cc(Br)c(OCC(=O)O)c(Br)c4)c3c2)cc1 [Example 14, 2-Isopropyl-3-(3,5-dibromo-4-carboxymethoxybenzoyl)-5-(4-methoxybenzamido)benzofuran] | 3.63 | 3.47 | antagonist activity in the ThRβ reporter cell line [3]: no or only weak antagonist activity; partial agonist/antagonist activity in the ThRα reporter cell line [4]: partial agonist/antagonist activity |
| CC(C)c1oc2ccc(NC(=O)c3ccc(O)cc3)cc2c1C(=O)c1cc(I)c(OCC(=O)O)c(I)c1 [Example 8, 2-Isopropyl-3-(3,5-diiodo-4-carboxymethoxybenzoyl)-5-(4-hydroxybenzamido)benzofuran] | – | 1.82 | – |
| CC(C)c1oc2ccc(NS(=O)(=O)C(F)(F)F)cc2c1C(=O)c1cc(I)c(OCC(=O)O)c(I)c1 [Example 6, 2-isopropyl-3-(3,5-diiodo-4-carboxymethoxybenzoyl)-5-trifluoromethylsulphonamidobenzofuran] | – | 3.72 | – |
